Data on three molecules can be found in patent publication US20250333398A1, “MONOARYL AND HETARYL SUBSTITUTED INDAZOLES AND BENZIMIDAZOLES AS STING ANTAGONISTS AND THE USE THEREOF AS MEDICAMENT” (Boehringer Ingelheim International GmbH, priority 2024, published 2025).

The term IC50 denotes the concentration at which inhibition is half-maximal.

Experiment [1] concerns T1, wild-type (GRR) human STING cGAMP binding domain (residues 155-341).
T1 construct: His-TEV-hSTING (WT); TEV protease cleavage site (N); made in house; host or cells: E. coli BL21 DE3
In words: Differential Scanning Fluorimetry (DSF), stability of STING protein against thermal denaturation. Conditions: 100 uM compound, 3 uM target protein. The procedure:
Dye fluorescence is quenched in aqueous environment and increases upon association of the dye with the hydrophobic parts of the unfolding protein. […] The inflection point of the curve represents the “melting” temperature of the protein (Tm) which is calculated numerically using the Boltzmann equation.
Method: The thermal stability of the STING protein was measured using a specific expression construct of the cGAMP binding domain of wild-type (GRR) human STING comprising residues 155-341 and a N-terminal 8x His-tag in assay buffer containing 20 mM Tris, 150 mM NaCl at pH7.5.
The assay uses Hard-Shell®PCR Plates 384-Well CLR/WHT (Catalog #HSP3805, BIO-RAD), Microseal®‘B’ Adhesive Seals for PCR Plates (Catalog #MSB-1001, BIO-RAD) and was run on a CFX384 Real-Time System (Bio-Rad).
A DMSO stock solution of SYPRO orange (SIGMA S5692-500UL) was prepared.
Compound stock solutions (10 mM in DMSO) were diluted 1:2 in DMSO to an intermediate compound concentration of 5 mM and then further diluted 1:40 in assay buffer resulting in a compound concentration of 125 μM and 2.5% DMSO.
Fluorescent dye stock solution (5000×SYPRO Orange) was then mixed with target protein and buffer to a concentration of 15 uM Protein and 25×SYPRO Orange. 2 ul of this protein-dye-mixture was added to 8 ul compound solution. Final volume was 10 uL. 3-6 well positions were used as negative control (protein with 2% DMSO). The plates were prepared for duplicate measurement and centrifuged for 2 min at 1000 g. In the measurement, 160 cycles of 0.5° C. were used (temperature ramp 15 s/cycle, 15° C. to 95° C.).
Final Assay concentrations for compound characterization were as follows:
100 uM compound, 3 uM target protein, 5×SYPRO Orange, 2% DMSO in 10 ul. All dispensing steps were performed using a HamiltonStar pipetting robot (Hamilton).
Dissociation curves were processed in Bio-Rad CFX Manager. Peak type was set to “negative”.
Compound codes for screen were assigned in the plate layout.
Two replicates of TM measurements were averaged, and the standard deviation was calculated. In cases of SD>1.5° C. the measurement was repeated.
The melting point (Tm) obtained for STING protein alone was subtracted from T obtained for protein incubated with ligand to generate ΔTm values.
Protein production and purification: The protein used for the biophysical experiments was a recombinant human STING protein comprising its cytosolic ectodomain. A codon optimized DNA sequence (for expression in Escherichia coli) encoding amino acid residues 155 to 341 (Swiss Prot Q86WV6) of human STING (WT) was synthesized by GeneArt (Regensburg, Germany) and inserted into a pET17b E. coli expression vector. The protein construct encodes an N-terminal 8× His-tag followed by tobacco etch virus protease (TEV) cleavage site and the above STING gene sequence. The resulting protein sequence for the used STING variant is listed below:
For expression of recombinant human STING above construct was transformed into E. coli BL21 DE3 strain and grown in shake flasks in LB-medium at 37° C. Expression was induced by addition of isopropyl β-D-1-thiogalactopyranoside to a final concentration of 1 mM and cultures shaken overnight. Cell pellets were centrifuged and stored at −70° C. until further use. Protein was purified by cell thawing in lysis buffer (20 mM TRIS-HCl, pH 8, 300 mM NaCl, 2 mM mercaptoethanol, 20 mM imidazole, Complete Protease Inhibitor (Roche) and DNase (Roche)), followed by metal affinity purification using Ni-NTA resins and elution buffer consisting of 20 mM TRIS-HCl, pH 8, 300 mM NaCl, 2 mM mercaptoethanol, 300 mM imidazole and size exclusion chromatography in running buffer (20 mM TRIS-HCl, pH 8, 100 mM NaCl, 2 mM DTT). The peak fraction was collected and concentrated to 2.5 mg/mL.
(DSF heats the sample and reads unfolding from a dye or from intrinsic fluorescence.)

In the next experiment the test system is STING. In words: IP10 production in human dermal microvascular endothelial cells (MVEC) after double-stranded DNA stimulation. Type of experiment: cell-based. Conditions: IP10 production after dsDNA stimulation; rounded average of multiple experiments; read-out: Inhibition of Human microvascular endothelial cells (IC50 nM). The source says: Interferon gamma-induced protein 10 (IP-10) also known as C—X—C motif chemokine ligand 10 (CXCL10) is produced as one of the responses of the presence of double-stranded DNA in the cytoplasm and resulting STING activity. In some diseases, imbalanced STING activation can result to damage in the endothelium, for example in SAVI patients (Liu Yet al. Activated STING in a vascular and pulmonary syndrome. N Engl J Med. 2014 Aug. 7; 371(6):507-518. doi: 10.1056/NEJMoa1312625). To test the efficacy of the inventive STING inhibitors, experiments in human microvascular endothelial cells (HMVEC) are performed with the inventive compounds. Dermal HMVEC are available from Lonza, US. They are cultured in 96 well plates according to the manufacturer's instructions. Using typical protocols, the cells are serum starved and then treated with the compound for 1 hour. The cells are then treated with 400 ng/mL of dsDNA as a complex with Lipofectamine 3000 (from Thermo Fisher Scientific Inc., Waltham, MA, USA) and incubated for 6 hours. The supernatants are collected and assayed for IP10 production.
Detection of IP10 is done using the U-PLEX HUMAN IP-10 ASSAY from Meso Scale Diagnostics (1601 Research Boulevard, Rockville, Maryland 20850-3173, USA) according to manufacturer's protocols.

On to `Cn1nc(-n2cc3c(-c4nc(-c5ccc(P(C)(C)=O)cc5OC(F)(F)F)n(C)c4C4CC4)cccc3n2)cc1C(F)(F)F` [Example 20, 4-{5-cyclopropyl-2-[4-(dimethylphosphoryl)-2-(trifluoromethoxy)phenyl]-1-methyl-1H-imidazol-4-yl}-2-[1-methyl-5-(trifluoromethyl)-1H-pyrazol-3-yl]-2H-indazole], for which, in experiment [1], the “DSF ΔTm (K)” value is 30 K. Further, in the experiment on STING, the IC50 stood at 33 nM.
The corresponding values for `CC[P@](C)(=O)c1ccc(-c2nc(-c3cccc4nn(-c5cc(C(F)(F)F)n(C)n5)cc34)c(C3CC3)n2C)c(OC(F)(F)F)c1` [Example 10, 4-(5-cyclopropyl-2-{4-[(S)-ethyl(methyl)phosphoryl]-2-(trifluoromethoxy)phenyl}-1-methyl-1H-imidazol-4-yl)-2-[1-methyl-5-(trifluoromethyl)-1H-pyrazol-3-yl]-2H-indazole] are 30 K and 11 nM.
The corresponding values for `CC[P@](C)(=O)c1ccc(-c2nc(-c3cccc4nn(-c5cc(C(F)F)n(C)n5)cc34)c(C3CC3)n2C)c(OC(F)(F)F)c1` [Example 7, 4-(5-cyclopropyl-2-{4-[(S)-ethyl(methyl)phosphoryl]-2-(trifluoromethoxy)phenyl}-1-methyl-1H-imidazol-4-yl)-2-[5-(difluoromethyl)-1-methyl-1H-pyrazol-3-yl]-2H-indazole] are 30 K and 21 nM.
